# In patent publication US7439251B2, “Methods and compositions for treatment of central and peripheral nervous system disorders and novel compounds useful therefor” (Israel Institute for Biological Research, priority 2002, dated 2008):
# Read-outs that look alike come from different tables or passages of the source.
# Tests used:
# [1] = Stability of 10% w/w AF150(S) in paraffin oil; assay type: physicochemical
# Experimental: In another embodiment of the invention, AF150(S) is provided in pharmaceutical acceptable paraffin oil. […] Ph) was examined at 40° C. under air or nitrogen atmosphere, in the presence or absence tocopherol. Samples were analyzed after two months storage. TLC, […] and GC were used to detect and determine the quantity of possible degradation product(s). Color changes were determined in comparison with Paraffin oil with or without tocopherol under the same conditions. AF150(S) was stable in the paraffin oil formulation.
# [2] = Working memory (MWM) in ischemic rats; assay type: in vivo, rat; conditions: 0.5 mg/kg po chronic, vs DDW
# Experimental: This was done by a bilateral carotid artery occlusion in Sprague Dawley rats: […] Ischemia was induced in 21 rats whereas the other 21 rats served as sham controls. Under pentobarbital anasthesia (30 mg/kg, ip), sodium nitropruside 4.8 mg/kg/hr) was infused through a cannula implanted in the tail vein, for a period of 25 min. […] Immediately afterwards 1.8 mEq sodium bicarbonate solution was administerd ip in order to minimize systemic acidosis. The sham operated rats were anesthetized as the ischemic rats and were infused with saline. Their carotid arteries were exposed but were not subject to carotid clamping. […] Animals were allowed to recover for 3 weeks prior to behavioral testing. […] The evaluation of the animals was done using the working-memory matching-to-sample paradigm in the MWM. […] REL and RPL reflect the relative saving in performance from trial no 1 to trial no 2. REL and RPL were analyzed by a 3-way ANOVA (2×2×3), with one repeated variable (weeks) and two non-repeated variables (Operation-ischemia/sham-operated and Treatment-AF150(S)/DDW).
# Aβ / γ-secretase = assay: Aβ levels in primary rat cortical neurons infected with Semliki Forest virus encoding human APP695, C99 or C111; assay type: cell-based
# Experimental: The mechanism of Aβ modulation was tested using C99 (and C111) that are truncated constructs generated from APP. Unlike APP, C99/C111 are direct substrates for γ-secretase. With both constructs it is possible to directly assay for γ-secretase activity, while with APP this is not possible. Both constructs are—as compared to APP—inefficient substrates for […]. Synergistc effects were also evaluated with CDX (methyl-β-cyclodextrin), an agent which extracts cholesterol from the plasma membrane. CDX inhibits also Aβ production CDX-treated cells were treated in addition to the respective muscarinic agonist for 5 min to reduce the cholesterol content.
# Aβ = assay: CSF and cortical Aβ in nbm-lesioned (hypocholinergic) rabbits; assay type: in vivo, rabbit; conditions: vs lesioned saline controls
# Text: Twenty-eight female New Zealand White rabbits, about 2.5 kg each (young adults) were used. Twenty-one received lesions of the cholinergic nucleus basalis magnocellularis (nbm). The lesion was accomplished with unilateral i.c.v. injections of an immunotoxin consisting of the ribosomal toxin saporin conjugated to the monoclonal antibody MB20.4, which is directed against the low-affinity neurotophin receptor, p75. The ME20.4 antibody is made against monkey p 75 and also recognizes rabbit p75. The dose of immunotoxin was 32.4 μg in 12 μl; this was delivered to the right lateral ventricle 2 mm lateral to the bregma. Seven animals received i.c.v. injections of sterile normal saline (sham lesion). Animals which received the immunotoxin were divided into 3 groups of 7. […] Another group received physostigmine hemisalicylate in normal saline by s.c. osmotic pump at a daily dose of 3 mg/kg. The third group received twice-daily sterile saline s.c. injections. The animals which received a sham lesion were implanted with s.c. osmotic pumps filled with sterile normal saline. Animals were euthanized 4 weeks after surgery. […] Cerebrospinal fluid was taken from the cisterna magna of all animals at the time of sacrifice; the brain was removed and sliced coronally into 0.5 cm slices. […]
# GSK-3β = GSK-3β activity in rat hippocampal neurons; assay type: cell-based; conditions: 10 μM with Aβ fibrils 10 μM (fibrils alone 370%)
# Experimental: (§1) This study was performed in rat hippocampal primary cell cultures using the methods described by Garrido J L et al. (FASEB J 2002; 16:1982).
# β-catenin = β-catenin levels in rat hippocampal neurons; assay type: cell-based; conditions: 100 μM; Aβ1-40 5 μM
# Experimental: as §1
# [3] = rat, in vivo, po
# Experimental: This calculation was based on the brain weight (2 gr) vs. total plasma volume (14 ml).
# [4] = pKa and free base fraction at CSF pH; conditions: pH 7.35 (CSF), calculated from pKa
# Experimental: For such compounds at the relevant pH of 7.35, only 2.2% are in non-ionized form. […] This calculation was based on the brain weight (2 gr) vs. total plasma volume (14 ml).
# human M3 receptor = molecular target: T1, human M3 receptor (Homo sapiens, UniProt P20309); assay: Arachidonic acid (AA) release, human M3; assay type: cell-based
# T1 construct: expressed in transfected cells
# [5] = tested on: adenosine A1, A2A, A3; alpha 1, alpha 2, beta 1; AT1; BZD; B2; CCKA; D1, D2S; ETA; GABA; GAL2; IL-8B; CCR1; H1, H2; MC4; ML1; NK2, NK3; Y1, Y2; NT1; opiate …; assay: Selectivity binding panel for AF292; conditions: 10 μM
# [6] = tested on: Isolated Guinea Pig Right Atrium; assay: Isolated guinea pig right atrium
# Experimental: (§2) • 1. Astemizole (human ether-a-go-go related gene (HERG) Channel) Binding Assay. […] Isolated Guinea Pig Right Atrium (atrial fibrillation). […] Effects of AF292 (dose 5 mg/kg orally) on cardiac electrophysiological, cardio-haemodynamic in instrumented, awake dogs. Healthy trained and chronically instrumented female Beagle dogs of varying age and ranging in body weight from 9.4 to 12 kg, were used for recording of the cardiovascular parameters: heart rate, diastolic and systolic blood pressure, pressure rate product, LV dp/dt max, LV dp/dt max/pd, LV dp/dt min, cardiac output, stroke volume, systemic vascular resistance and the ECG parameters (PQ-, QRS-, QT-, QTcBazett—(QTcB), QTcFridericia—(QTcF) and QTcVan de Water—(QTcVdW) interval duration and QT-dispersion. During the last 18 hours prior to the experiments, the dogs had no access to food. Water was available ad libitum. At the beginning of each experiment, control values of the various parameters were recorded for at least 30 min. Thereafter, 5 mg/kg of AF292 (n=4) or the corresponding volume of the solvent (n=4) was administered orally by gavage. The various haemodynamic parameters were recorded continuously for 4 hours thereafter.
# [7] = Cardiac electrophysiology and haemodynamics in instrumented awake dogs; assay type: in vivo, Beagle dog; conditions: 5 mg/kg orally, 4 hours
# Experimental: as §2
# CPY2D6 = CPY2D6 (Homo sapiens, UniProt P10635); assay: P450 inhibition, microtiter plate; assay type: in vitro ADME; conditions: up to 10 μM
# Experimental: (§3) Cytochrome P450 activity can be an indicator for potential drug-drug interactions. AF292 was evaluated in a microtiter plate assay for P450 inhibition.
# CYP1A2 = CYP1A2 (Homo sapiens, UniProt P05177); assay: P450 inhibition, microtiter plate; assay type: in vitro ADME; conditions: up to 10 μM
# Experimental: as §3
# CYP2C19 = CYP2C19 (Homo sapiens, UniProt P33261); assay: P450 inhibition, microtiter plate; assay type: in vitro ADME; conditions: up to 10 μM
# Experimental: as §3
# CYP2C9 = CYP2C9 (Homo sapiens, UniProt P11712); assay: P450 inhibition, microtiter plate; assay type: in vitro ADME; conditions: up to 10 μM
# Experimental: as §3
# CYP3A4 = CYP3A4 (Homo sapiens, UniProt P08684); assay: P450 inhibition, microtiter plate; assay type: in vitro ADME; conditions: up to 10 μM
# Experimental: as §3
# [8] = tested on: Human α-glycoprotein (AGP); assay: Protein binding, human α-glycoprotein; assay type: in vitro ADME; conditions: 10 μM
# Experimental: Protein binding studies were carried out in human plasma, α1-glycoprotein, human serum […] (HSA), and Dulbecco's Phosphate Buffered Saline (PBS). AF292 was added to a final concentration of 10 μM. […] (μM) and in human α-glycoprotein (AGP), (see Table 1).
# CYP2C9, sequence (P11712 whole entry): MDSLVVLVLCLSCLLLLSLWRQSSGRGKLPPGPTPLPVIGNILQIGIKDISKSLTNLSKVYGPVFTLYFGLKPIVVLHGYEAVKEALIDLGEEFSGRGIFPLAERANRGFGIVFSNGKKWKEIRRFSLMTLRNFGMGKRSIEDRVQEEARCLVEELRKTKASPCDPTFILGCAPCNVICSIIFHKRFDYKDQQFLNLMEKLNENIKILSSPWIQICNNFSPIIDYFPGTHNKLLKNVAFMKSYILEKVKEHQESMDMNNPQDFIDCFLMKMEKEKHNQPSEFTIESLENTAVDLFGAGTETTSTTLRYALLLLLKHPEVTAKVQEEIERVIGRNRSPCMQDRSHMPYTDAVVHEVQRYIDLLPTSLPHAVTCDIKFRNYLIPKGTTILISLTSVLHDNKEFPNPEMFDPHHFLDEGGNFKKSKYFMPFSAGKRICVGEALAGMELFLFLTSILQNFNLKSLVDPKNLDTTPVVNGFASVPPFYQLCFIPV
# CYP2C19, sequence (P33261 whole entry): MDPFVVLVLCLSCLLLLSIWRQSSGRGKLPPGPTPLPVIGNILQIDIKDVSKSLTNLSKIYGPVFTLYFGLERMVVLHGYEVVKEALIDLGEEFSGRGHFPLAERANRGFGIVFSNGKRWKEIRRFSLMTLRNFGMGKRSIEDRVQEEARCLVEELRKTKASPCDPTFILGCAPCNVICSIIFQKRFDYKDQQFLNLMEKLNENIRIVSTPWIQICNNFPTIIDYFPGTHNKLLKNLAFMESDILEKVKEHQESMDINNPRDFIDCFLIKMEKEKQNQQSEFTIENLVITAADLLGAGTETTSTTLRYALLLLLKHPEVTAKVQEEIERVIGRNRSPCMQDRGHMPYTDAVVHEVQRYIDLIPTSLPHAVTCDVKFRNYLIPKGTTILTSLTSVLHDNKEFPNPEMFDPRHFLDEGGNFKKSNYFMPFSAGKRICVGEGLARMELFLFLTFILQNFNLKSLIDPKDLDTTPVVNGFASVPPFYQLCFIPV
# CPY2D6, sequence (P10635 whole entry): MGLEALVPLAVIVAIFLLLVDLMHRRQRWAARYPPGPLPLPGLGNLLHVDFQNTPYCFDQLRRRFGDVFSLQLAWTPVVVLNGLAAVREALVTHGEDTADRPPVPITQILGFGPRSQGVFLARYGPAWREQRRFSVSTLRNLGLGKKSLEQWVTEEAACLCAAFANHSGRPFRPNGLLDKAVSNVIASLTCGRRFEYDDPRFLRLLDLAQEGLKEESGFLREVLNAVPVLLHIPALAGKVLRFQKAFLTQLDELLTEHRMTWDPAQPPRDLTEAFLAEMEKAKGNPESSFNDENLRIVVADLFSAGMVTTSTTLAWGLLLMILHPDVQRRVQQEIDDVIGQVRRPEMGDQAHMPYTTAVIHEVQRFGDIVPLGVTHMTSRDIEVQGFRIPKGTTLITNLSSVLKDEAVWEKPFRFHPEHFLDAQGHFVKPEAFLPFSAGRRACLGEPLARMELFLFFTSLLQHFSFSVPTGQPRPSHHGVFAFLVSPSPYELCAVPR
# CYP1A2, sequence (P05177 whole entry): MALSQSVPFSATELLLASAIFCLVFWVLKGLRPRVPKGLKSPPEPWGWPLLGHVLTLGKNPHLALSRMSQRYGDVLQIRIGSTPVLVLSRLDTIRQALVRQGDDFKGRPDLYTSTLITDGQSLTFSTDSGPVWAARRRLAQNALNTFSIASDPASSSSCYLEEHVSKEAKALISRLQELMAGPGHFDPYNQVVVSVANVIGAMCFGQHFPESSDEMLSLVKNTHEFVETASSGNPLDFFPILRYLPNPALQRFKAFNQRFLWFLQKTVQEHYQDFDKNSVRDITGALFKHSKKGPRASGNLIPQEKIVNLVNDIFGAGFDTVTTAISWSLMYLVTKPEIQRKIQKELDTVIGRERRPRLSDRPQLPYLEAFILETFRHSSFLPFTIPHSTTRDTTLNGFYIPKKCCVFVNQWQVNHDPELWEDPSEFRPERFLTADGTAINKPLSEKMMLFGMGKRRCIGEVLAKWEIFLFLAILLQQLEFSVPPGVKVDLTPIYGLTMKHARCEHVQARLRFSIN
# CYP3A4, sequence (P08684 whole entry): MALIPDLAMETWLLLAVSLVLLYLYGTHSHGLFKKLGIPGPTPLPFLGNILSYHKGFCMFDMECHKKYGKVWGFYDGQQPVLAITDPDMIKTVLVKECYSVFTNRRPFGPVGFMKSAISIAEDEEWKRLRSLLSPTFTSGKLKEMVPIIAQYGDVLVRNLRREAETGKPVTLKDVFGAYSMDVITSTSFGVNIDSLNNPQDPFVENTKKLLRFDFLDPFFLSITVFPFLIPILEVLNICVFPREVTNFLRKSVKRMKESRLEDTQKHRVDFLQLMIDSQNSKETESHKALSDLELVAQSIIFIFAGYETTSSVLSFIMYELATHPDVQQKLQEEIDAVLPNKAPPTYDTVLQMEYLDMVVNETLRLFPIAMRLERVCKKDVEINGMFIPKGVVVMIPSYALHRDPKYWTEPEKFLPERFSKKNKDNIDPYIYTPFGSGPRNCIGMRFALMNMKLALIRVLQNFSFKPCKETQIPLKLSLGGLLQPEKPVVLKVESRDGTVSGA
# T1 sequence (P20309 whole entry): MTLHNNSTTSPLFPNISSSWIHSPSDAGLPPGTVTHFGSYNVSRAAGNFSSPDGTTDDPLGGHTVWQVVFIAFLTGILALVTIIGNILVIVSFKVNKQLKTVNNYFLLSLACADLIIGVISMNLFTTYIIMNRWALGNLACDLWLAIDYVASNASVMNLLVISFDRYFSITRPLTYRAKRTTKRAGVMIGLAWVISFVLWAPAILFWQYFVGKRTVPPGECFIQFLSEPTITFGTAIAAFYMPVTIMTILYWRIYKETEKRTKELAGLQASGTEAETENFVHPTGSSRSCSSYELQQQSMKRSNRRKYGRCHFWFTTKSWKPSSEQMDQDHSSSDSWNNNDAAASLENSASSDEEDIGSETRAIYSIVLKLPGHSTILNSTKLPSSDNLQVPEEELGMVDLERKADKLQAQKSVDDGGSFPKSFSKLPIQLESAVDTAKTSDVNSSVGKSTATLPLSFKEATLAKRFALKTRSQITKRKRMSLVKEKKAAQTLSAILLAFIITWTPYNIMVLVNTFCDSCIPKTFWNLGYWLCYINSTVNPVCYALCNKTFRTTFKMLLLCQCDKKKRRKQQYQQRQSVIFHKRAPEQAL
smiles,measurement,setting,value
"CC1=NCC2(CCN(C)CC2)S1 [AF150(S), 2,8-Dimethyl-1-thia-3,8-diaza-spiro[4.5]dec-2-ene]",Stability in the paraffin oil formulation,"[1]; 40° C., two months",stable
same,Color change,[1]; samples containing 0.5% w/w tocopherol,color was not developed
same,Color change,[1]; samples without tocopherol,slight yellow color
same,working memory performance (REL and RPL),[2],significantly improved working memory performance
"CC[C@@H]1SC2(CCN(C)CC2)NC1=O [AF267B, (S)-2-ethyl-8-methyl-1-thia-4,8-diaza-spiro[4.5]decan-3-one]",reduction of the release of Aβ-like fragments (3-4 Kda),Aβ / γ-secretase,approximately 50%
same,p3 fragment,"Aβ / γ-secretase; 1 mM, vs control",complete loss
same,Aβ with cholesterol lowering agent CDX,Aβ / γ-secretase; with CDX (5 mM),undetectable Aβ levels
same,CSF sAPPα bands,Aβ,no significant difference
same,CSF Aβ (4 kDa band),Aβ; p=0.05,noticeable decrease
same,GSK-3β activity vs. control (100%),GSK-3β,150%
same,Aβ1-40-induced degradation of soluble β-catenin,β-catenin,prevented
same,% of the compound found in the brain (Cmax brain/Cmax plasma),[3]; female,16%
same,% of the compound found in the brain (Cmax brain/Cmax plasma),[3]; male,25%
same,% of the compound in free base form,[4],26.2%
"CC[C@@H]1SC2(CCNCC2)NC1=O [AF292, (S)-2-Ethyl-1-thia-4,8-diaza-spiro[4.5]decan-3-one]","AA release, agonist activity",human M3 receptor,inactive as an agonist
same,"binding to other receptors, channels and transporter",[5],no binding at all
same,contractile force,[6],no significant effect
same,contractile rate,[6]; vs vehicle group,tended to slightly reduce
same,hemodynamic or ECG parameters,[7],no statistically significant and relevant effect
same,P450 inhibition,CPY2D6,did not induce significant
same,P450 inhibition,CYP1A2,did not induce significant
same,P450 inhibition,CYP2C19,did not induce significant
same,P450 inhibition,CYP2C9,did not induce significant
same,P450 inhibition,CYP3A4,did not induce significant
same,Protein Binding,[8],Human α-glycoprotein (AGP) = 0%
